According to patent publication US6683060B2, “Matrix metalloproteinase and tumor necrosis factor inhibitors” (Advanced Gene Technology Corp., priority 2002, dated 2004):
Read-outs that look alike come from different tables or passages of the source.

Key:
ES-2 cells = assay: Invasive/metastatic potential of cancer cells, Boyden chemotaxis assay chambers; assay type: cell-based, human; conditions: 18-hour incubation; for IC50: Homo sapiens
Procedure: (§1) ES-2 is a human ovarian carcinoma. It was maintained in a modified McCoy's 5A medium (Gibco) and supplemented with 10% FBS (fetal bovine serum).
(§2) In this method, Boyden chemotaxis assay chambers (Costar Transwell plates) were used. Each Boyden chemotaxis assay chamber included a top chamber having a filter as the bottom side of the top chamber and a bottom well surrounding the top chamber. The bottom side of the top chamber used here was an 8 μm-pore polycarbonate filter.
0.35 ml of a medium with complete nutrition supplements as a chemo-attractant was added to each bottom well. Cancer cells (2×10^5 in 50 μl) were then plated on the filters in each of the top chambers. Compound 1 or uridine was diluted in the serum-free medium to 0.536 mg/ml and then was added to the top chambers, with the volume of 50 μl/chamber. The control tests were performed with 2 μM paclitaxel (positive control) or with medium only (negative control) in the top chambers.
After an 18-hour incubation, the cells in the top chambers were carefully emptied with sterile cotton buds. 100 μl XTT reagent (1 mg/ml) was added to each of the bottom wells. After incubating for 4 hours, absorbance (O.D.) was measured at 450 nm with the reference wavelength at 690 nm. The ratio of the OD from the bottom wells to that of the OD from the bottom wells of the control tests was taken as the invasive potential. Results presented are from three different independent experiments.

[1] = test system: ES-2, COLO205, PC-3, A375, and A549 cell lines; assay: Proliferation/cytotoxicity assay on cancer cell lines (XTT assay); assay type: cell-based, human; conditions: 72 hours exposure, five cancer cell lines; for cellular viability (XTT assay): serially two-fold diluted from 0.258 mg/ml, data not shown
From the text: Five cancer-derived cell lines obtained from the American Type Culture Collection (ATCC) were used for the following proliferation/cytotoxicity assay. These cell lines are listed as follow:
as §1
(§3) COLO205 is a human colon cancer-derived cell line. It was maintained in a RPMI 1640 medium (Hyclone), and supplemented with 10% heat-inactivated FBS.
(§4) PC-3 is a human prostate cancer-derived cell line. It was maintained in a Ham's F12 K medium (Gibco) and supplemented with 7% FBS.
(§5) A375 is a human malignant melanoma-derived cell line. It was maintained in a Dulbecco's modified Eagle's medium (DMEM, Hyclone) and supplemented with 10% FBS, 4 mM L-glutamine, 4.5 g/l glucose, and 1.0 mM sodium pyruvate.
(§6) A549 is a human lung cancer-derived cell line. It was maintained in a F12K medium (Gibco) and supplemented with 10% FBS.
To determine the cytotoxicity of Compound 1 or uridine on each cancer cell lines, ES-2, COLO205, PC-3, A375, and A549 cell lines were used. Each cancer cell line at a concentration of 1×10^4 cells/100 μl in each well (Falcon, MicroTest™ 96) was exposed to Compound 1, uridine or 1 μM paclitaxel (taxol, Sigma) for 72 hours in a complete medium. The Compound 1 and uridine were serially two-fold diluted from the concentration of 0.258 mg/ml.
Cellular viability was estimated by the tetrazolium dye reduction assay (XTT assay, Boehringer Mannheim). The amount of XTT reagent (a tetrazolium salt) added to the bottom wells was 100 μl/well and its concentration was 1 mg/ml. The-wells were incubated for 4 hours to allow viable cells to develop color. Absorbance (O.D.) was measured at 450 nm with the reference wavelength at 690 nm.

MMP-2 = target: T1, MMP-2 (Homo sapiens, UniProt P08253); assay: Inhibition of MMP-2 gelatinase activity on microtiter plates (biotinylated gelatin hydrolysis); assay type: biochemical
T1 construct: The purified enzyme was already an active form with a molecular weight of about 64K; endogenous in cells; host or cells: ES-2 human ovarian carcinoma cells (secreted into serum-free conditioned medium; purified on gelatin-Sepharose 4B)
T1 sequence (P08253 110-660): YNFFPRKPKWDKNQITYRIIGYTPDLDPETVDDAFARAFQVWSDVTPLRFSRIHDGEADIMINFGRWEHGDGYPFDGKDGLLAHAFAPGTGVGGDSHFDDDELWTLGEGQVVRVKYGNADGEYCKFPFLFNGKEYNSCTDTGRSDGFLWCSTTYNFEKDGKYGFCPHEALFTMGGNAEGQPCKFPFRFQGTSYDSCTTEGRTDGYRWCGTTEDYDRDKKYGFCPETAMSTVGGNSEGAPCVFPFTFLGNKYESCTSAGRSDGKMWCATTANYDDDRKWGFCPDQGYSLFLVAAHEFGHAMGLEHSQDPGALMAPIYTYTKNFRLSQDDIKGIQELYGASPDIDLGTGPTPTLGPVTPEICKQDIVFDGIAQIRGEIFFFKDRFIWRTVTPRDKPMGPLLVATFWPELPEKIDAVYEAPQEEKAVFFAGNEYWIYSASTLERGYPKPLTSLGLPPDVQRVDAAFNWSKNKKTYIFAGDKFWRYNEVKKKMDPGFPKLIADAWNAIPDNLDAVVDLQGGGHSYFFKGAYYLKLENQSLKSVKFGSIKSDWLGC
Procedure: The MMP-2 enzyme was obtained from cancer cells and then purified by using gelatin-Sephose 4B (Pharmacia). Serum-free conditioned medium from human ovarian carcinoma cells, ES-2, was concentrated 50-fold and then MMP-2 enzyme was obtained by ultrafiltration using a 30,000 MW (molecular weight) cut-off membrane (YM-30, Amicon). The affinity matrix was equilibrated with an equilibration buffer, which was composed of 50 mM Tris.HCl (pH7.6), 10 mM EDTA and 0.01% Tween 20, containing 0.5 M NaCl. After extensive washing with the equilibration buffer containing 0.5 M NaCl, the bound enzyme was eluted with the equilibration buffer containing 1 M NaCl. […]
The plates were then read at 450 nm (reference length 470 nm) in a microtiter plate reader (Dynex, MRX). The absorbance at 450 nm […] as the concentration of MMP-2 […]. […] Therefore, in the reaction of BG with MMP-2, the absorbance should be a factor 3-5 times lower than an absorbance reading of BG without MMP-2 enzyme (a gelatinase). […]
The effect of Compound 1 on MMP-2 activity was measured by basically the same procedure as described in the section, GELATINASE ASSAY ON MICROTITER PLATES. As Compound 1 was similar to uridine in chemical structure, the effect of a commercial available uridine (Sigma, U-3750, D-Ribose) on MMP-2 activity was also measured for comparison in the experiment. […]

[2] = test system: COLO205, PC-3, A375, A549 cell lines; assay: Invasive/metastatic potential of cancer cells, Boyden chemotaxis assay chambers, other four cell lines; assay type: cell-based, human; conditions: same concentration ranges as ES-2, data not shown
Procedure: as §3, §4, §5, §6, §2
0.35 ml of a medium with complete nutrition supplements as a chemo-attractant was added to each bottom well. Cancer cells (2×10^5 in 50 μl) were then plated on the filters in each of the top chambers. […]
After an 18-hour incubation, the cells in the top chambers were carefully emptied with sterile cotton buds. […] After incubating for 4 hours, absorbance (O.D.) was measured at 450 nm with the reference wavelength at 690 nm. […]

TNFα binding to TNFα-RI = TNFα binding to TNFα-RI (Homo sapiens, UniProt P01375+P19438); assay: Inhibition of binding of biotinylated TNFα to TNFα-RI on coated microtiter plate
Procedure: 50 μl TNFα-RI at a concentration of 0.25 μg/ml was coated onto each well of a 96-well C-bottom microtiter plate (Nunc) in a 50 mM carbonate buffer (pH 9.5) at 4° C. overnight. The plate was washed 3 times with 200 μl TBST solution composed of 50 mM Tris.HCl (pH 7.35) containing 0.15 M NaCl and 0.05% Tween 20 to remove excess TNFα-RI. 200 μl/well of 0.5% BSA in PBS was added to each plate for blocking of the TNFα-RI. The reaction was carried out at 37° C. for 2 hours followed by washing 4 times with TBST to remove excess BSA.
Compound 1 was serially diluted in TBST solution. Biotinylated TNFα with a concentration of 0.5 μg/ml was mixed with Compound 1 solution in a volume ratio of 1:1. The reaction was allowed to proceed for 30 minutes at 37° C. with shaking at 500 rpm for allowing mixing. The mixtures were then added to the TNFα-RI coated plate, 50 μl for each well. The plate was then incubated at 37° C. for 2 hours with shaking again at 500 rpm, for competitive binding of the biotinylated TNFα and Compound 1.
Followed by washing 4 times with TBST, Extravidin-alkaline phosphatase (Sigma) diluted in TBST (1/5,000) was added to the plate, 50 μl/well. The plate was further incubated at 37° C. for 2 hours and then washed 4 times with TBST. […] After a 30-minute incubation at room temperature, absorbance at the wavelength of 405 nm was measured. […]

Sequence of TNFα binding to TNFα-RI (P01375 77-233 limits assumed): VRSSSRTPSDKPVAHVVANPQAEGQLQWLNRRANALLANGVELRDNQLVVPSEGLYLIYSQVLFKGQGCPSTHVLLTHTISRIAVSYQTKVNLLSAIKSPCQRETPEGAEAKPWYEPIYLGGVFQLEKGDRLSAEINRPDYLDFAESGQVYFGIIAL
Sequence of TNFα binding to TNFα-RI (P19438 22-211 limits assumed): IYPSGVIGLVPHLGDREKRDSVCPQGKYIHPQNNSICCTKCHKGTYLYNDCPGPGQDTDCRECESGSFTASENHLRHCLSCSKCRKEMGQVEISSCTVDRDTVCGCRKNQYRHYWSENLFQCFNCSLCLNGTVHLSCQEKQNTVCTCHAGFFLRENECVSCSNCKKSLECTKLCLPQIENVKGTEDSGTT

SMILES | IC50 (ES-2 cells; XTT readout of bottom wells, read-out: 50% inhibitory dose (IC50) on invasive potential) [µg/mL] | IC50 (ES-2 cells; printed conversion of 23 μg/ml, read-out: 50% inhibitory dose (IC50) on invasive potential, converted to molar) [µM] | cellular viability (XTT assay) [1] | IC50 (MMP-2; purified MMP-2 from ES-2 conditioned medium, biotinylated gelatin substrate, read-out: 50% inhibitory dose (IC50) on MMP-2 activity) [µM] | effect on invasive potential [2] | inhibition activity on TNFα binding to TNFα-RI compared with Suramin (TNFα binding to TNFα-RI; FIG. 6, Suramin as comparative compound) | IC50 (TNFα binding to TNFα-RI; biotinylated TNFα 0.5 μg/ml mixed 1:1 with compound, TNFα-RI coated plate, read-out: 50% inhibitory dose (IC50) on TNFα binding to TNFα-RI) [µM] | inhibition of cell proliferation (XTT assay) ([1]; paclitaxel positive control) | effect on invasive potential (ES-2 cells; data not shown) | inhibitory activity to MMP-2 (MMP-2; at the concentration of 0.82 mM, data not shown)
O=c1ccn(C2OC(CCO)C(O)C2O)c(=O)[nH]1 (stereo not drawn) [Compound 1, 1-[3,4-dihydroxy-5-(2-hydroxyethyl)tetrahydrofuran-2-yl]pyrimidine-2,4(1H,3H)-dione] | 23 | 90 | did not reduce cellular viability | 150 | not significantly affected | smaller than that of Suramin | 50 | – | – | –
CC(=O)O[C@H]1C(=O)[C@@]2(C)[C@H]([C@H](OC(=O)c3ccccc3)[C@]3(O)C[C@H](OC(=O)[C@H](O)[C@@H](NC(=O)c4ccccc4)c4ccccc4)C(C)=C1C3(C)C)[C@]1(OC(C)=O)CO[C@@H]1C[C@@H]2O [paclitaxel] | – | – | – | – | – | – | – | inhibition of cell proliferation was proportional to the concentration of paclitaxel | – | –
O=c1ccn([C@@H]2O[C@H](CO)[C@@H](O)[C@H]2O)c(=O)[nH]1 [uridine, reference compound] | – | – | did not reduce cellular viability | – | did not show any effect | – | – | – | did not show any effect | no inhibitory activity
